Results as given in ChEMBL document CHEMBL3352214, “Studies on indolizines. Evaluation of their biological properties as microtubule-interacting agents and as melanoma targeting compounds” (Eur J Med Chem, 2015).

Key:
T47D = experiment: Growth inhibition of human T47D cells at 10^-5 M after 48 hrs by SRB assay; assay type: functional; details: Homo sapiens, T47D, 48 h; read-out: GI
NCI-H522 [1] = experiment: Growth inhibition of human NCI-H522 cells at 10^-5 M after 48 hrs by SRB assay; assay type: functional; details: NCI-H522, 48 h, read-out: GI
HL-60(TB) [2] = experiment: Growth inhibition of human HL-60(TB) cells at 10^-5 M after 48 hrs by SRB assay; assay type: functional; details: HL-60, 48 h, read-out: GI
A498 [3] = experiment: Growth inhibition of human A498 cells at 10^-5 M after 48 hrs by SRB assay; assay type: functional; details: A498, 48 h, read-out: GI
[4] = Growth inhibition of human HCT15 cells at 10^-5 M after 48 hrs by SRB assay; assay type: functional; details: HCT-15, 48 h, read-out: GI
[5] = Growth inhibition of human SF295 cells at 10^-5 M after 48 hrs by SRB assay; assay type: functional; details: SF-295, 48 h, read-out: GI
[6] = Growth inhibition of human HOP92 cells at 10^-5 M after 48 hrs by SRB assay; assay type: functional; details: HOP-92, 48 h, read-out: GI
Malme-3M = experiment: Growth inhibition of human MALME-3M cells at 10^-5 M after 48 hrs by SRB assay; assay type: functional; details: read-out: GI
SNB-75 [7] = experiment: Growth inhibition of human SNB75 cells at 10^-5 M after 48 hrs by SRB assay; assay type: functional; details: SNB-75, 48 h, read-out: GI
CAKI-1 = experiment: Growth inhibition of human Caki1 cells at 10^-5 M after 48 hrs by SRB assay; assay type: functional; details: CAKI-1, 48 h, read-out: GI
MDA-MB-435 [8] = experiment: Growth inhibition of human MDA-MB-435 cells at 10^-5 M after 48 hrs by SRB assay; assay type: functional; details: MDA-MB-435, 48 h, read-out: GI
[9] = Growth inhibition of human MOLT4 cells at 10^-5 M after 48 hrs by SRB assay; assay type: functional; details: MOLT-4, 48 h, read-out: GI
[10] = Growth inhibition of human EKVX cells at 10^-5 M after 48 hrs by SRB assay; assay type: functional; details: read-out: GI
Ovis aries = organism: Ovis aries; experiment: Inhibition of sheep brain tubulin polymerization at 100 uM by fluorescence assay
MCF7 [11] = experiment: Growth inhibition of human MCF7 cells at 10^-5 M after 48 hrs by SRB assay; assay type: functional; details: MCF7, 48 h, read-out: GI
[12] = Growth inhibition of human PC3 cells at 10^-5 M after 48 hrs by SRB assay; assay type: functional; details: PC-3, 48 h, read-out: GI
[13] = Growth inhibition of human HCT116 cells at 10^-5 M after 48 hrs by SRB assay; assay type: functional; details: HCT-116, 48 h, read-out: GI
[14] = Inhibition of sheep brain tubulin polymerization by fluorescence assay; design: species or system Ovis aries
A498 [15] = experiment: Growth inhibition of human A498 cells after 48 hrs by SRB assay; assay type: functional; details: A498, 48 h
SF-295 = experiment: Cytotoxicity against human SF295 cells assessed as cell growth at 10^-5 M after 48 hrs by SRB assay; assay type: functional; details: SF-295, 48 h, read-out: Activity
A498 [16] = experiment: Cytotoxicity against human A498 cells assessed as cell growth at 10^-5 M after 48 hrs by SRB assay; assay type: functional; details: A498, 48 h, read-out: Activity
K562 = experiment: Growth inhibition of human K562 cells after 48 hrs by SRB assay; assay type: functional; details: K562, 48 h
[17] = Growth inhibition of human OVCAR3 cells after 48 hrs by SRB assay; assay type: functional; details: OVCAR-3, 48 h
NCI-H522 [18] = experiment: Cytotoxicity against human NCI-H522 cells assessed as cell growth at 10^-5 M after 48 hrs by SRB assay; assay type: functional; details: NCI-H522, 48 h, read-out: Activity
MCF7 [19] = experiment: Growth inhibition of human MCF7 cells after 48 hrs by SRB assay; assay type: functional; details: MCF7, 48 h
SK-MEL-5 = experiment: Growth inhibition of human SK-MEL-5 cells after 48 hrs by SRB assay; assay type: functional; details: SK-MEL-5, 48 h
NCI/ADR-RES = experiment: Growth inhibition of human NCI/ADR-RES cells after 48 hrs by SRB assay; assay type: functional
SNB-75 [20] = experiment: Growth inhibition of human SNB75 cells after 48 hrs by SRB assay; assay type: functional; details: SNB-75, 48 h
HL-60(TB) [21] = experiment: Cytotoxicity against human HL-60(TB) cells assessed as cell growth at 10^-5 M after 48 hrs by SRB assay; assay type: functional; details: HL-60, 48 h, read-out: Activity
MDA-MB-468 = experiment: Growth inhibition of human MDA-MB-468 cells after 48 hrs by SRB assay; assay type: functional; details: MDA-MB-468, 48 h
[22] = Growth inhibition of human COLO205 cells after 48 hrs by SRB assay; assay type: functional; details: COLO 205, 48 h
KM12 = experiment: Growth inhibition of human KM12 cells after 48 hrs by SRB assay; assay type: functional; details: KM12, 48 h
MDA-MB-435 [23] = experiment: Growth inhibition of human MDA-MB-435 cells after 48 hrs by SRB assay; assay type: functional; details: MDA-MB-435, 48 h
MDA-MB-435 [24] = experiment: Cytotoxicity against human MDA-MB-435 cells assessed as cell growth at 10^-5 M after 48 hrs by SRB assay; assay type: functional; details: MDA-MB-435, 48 h, read-out: Activity
HL-60(TB) [25] = experiment: Growth inhibition of human HL-60(TB) cells after 48 hrs by SRB assay; assay type: functional; details: HL-60, 48 h
[26] = Growth inhibition of human PC3 cells after 48 hrs by SRB assay; assay type: functional; details: PC-3, 48 h
HT-29 = experiment: Growth inhibition of human HT-29 cells after 48 hrs by SRB assay; assay type: functional; details: HT-29, 48 h
SR = experiment: Growth inhibition of human SR cells after 48 hrs by SRB assay; assay type: functional
NCI-H522 [27] = experiment: Growth inhibition of human NCI-H522 cells after 48 hrs by SRB assay; assay type: functional; details: NCI-H522, 48 h

For `COC(=O)c1c(C(=O)OC)c2cc(C)ccn2c1C(=O)c1cc(OC)c(OC)c(OC)c1`, the inhibition of growth at 10 µM (T47D) was 3%, the inhibition of growth at 10 µM (NCI-H522 [1]) was 5% and the inhibition of growth at 10 µM (HL-60(TB) [2]) was 7%. The inhibition of growth at 10 µM (A498 [3]) was 3%, the inhibition of growth at 10 µM [4] was 3% and the inhibition of growth at 10 µM [5] was 0%. For the same compound, the inhibition of growth at 10 µM [6] was 5%, the inhibition of growth at 10 µM (Malme-3M) was 8% and the inhibition of growth at 10 µM (SNB-75 [7]) was 7%. It also gave an inhibition of growth at 10 µM (CAKI-1) of 3%, an inhibition of growth at 10 µM (MDA-MB-435 [8]) of 0% and an inhibition of growth at 10 µM [9] of 4%. The inhibition of growth at 10 µM [10] was 0%, the inhibition (Ovis aries) was 2% and the inhibition of growth at 10 µM (MCF7 [11]) was 0%. It also gave an inhibition of growth at 10 µM [12] of 1% and an inhibition of growth at 10 µM [13] of 0%.

`CCOC(=O)c1c(C(=O)OCC)c2c(C)cc(C)cn2c1C(=O)c1cc(OC)c(OC)c(OC)c1` gave an IC50 [14] of 93200 nM and an inhibition (Ovis aries) of 58%.

Compound `CCOC(=O)c1cc(C(=O)c2cc(OC)c(OC)c(OC)c2)n2c(C)cccc12` has an inhibition of growth at 10 µM (T47D) of 63%, a GI50 (A498 [15]) of 52 nM and a growth at 10 µM (SF-295) of -32%. It also gave a growth at 10 µM (A498 [16]) of -3%, an inhibition of growth at 10 µM (NCI-H522 [1]) of 100% and an inhibition of growth at 10 µM (HL-60(TB) [2]) of 100%. For the same compound, the GI50 (K562) was 53 nM, the inhibition of growth at 10 µM (A498 [3]) was 100% and the inhibition of growth at 10 µM [4] was 78%. It also gave an inhibition of growth at 10 µM [5] of 100%, an IC50 [14] of 8020 nM and an inhibition of growth at 10 µM [6] of 26%. For the same compound, the inhibition of growth at 10 µM (Malme-3M) was 63%, the inhibition of growth at 10 µM (SNB-75 [7]) was 88% and the GI50 [17] was 40 nM. The growth at 10 µM (NCI-H522 [18]) was -32%, the GI50 (MCF7 [19]) was 56 nM and the GI50 (SK-MEL-5) was 61 nM. It also gave an inhibition of growth at 10 µM (CAKI-1) of 63%, an inhibition of growth at 10 µM (MDA-MB-435 [8]) of 100% and a GI50 (NCI/ADR-RES) of 65 nM. It also gave a GI50 (SNB-75 [20]) of 121 nM, a growth at 10 µM (HL-60(TB) [21]) of -42% and an inhibition of growth at 10 µM [9] of 96%. It also gave a GI50 (MDA-MB-468) of 111 nM, a GI50 [22] of 108 nM and a GI50 (KM12) of 60 nM. The inhibition of growth at 10 µM [10] was 57%, the GI50 (MDA-MB-435 [23]) was 30 nM and the growth at 10 µM (MDA-MB-435 [24]) was -48%. It also gave an inhibition (Ovis aries) of 83%, a GI50 (HL-60(TB) [25]) of 34 nM and a GI50 [26] of 122 nM. The inhibition of growth at 10 µM (MCF7 [11]) was 86%, the GI50 (HT-29) was 40 nM and the inhibition of growth at 10 µM [12] was 77%. It also gave a GI50 (SR) of 33 nM, a GI50 (NCI-H522 [27]) of 66 nM and an inhibition of growth at 10 µM [13] of 91%.

Compound `CCOC(=O)c1cc(C(=O)c2cc(OC)c(OC)c(OC)c2)n2ccc(OC)cc12` has an inhibition of growth at 10 µM (T47D) of 5%, an inhibition of growth at 10 µM (NCI-H522 [1]) of 44% and an inhibition of growth at 10 µM (HL-60(TB) [2]) of 17%. It also gave an inhibition of growth at 10 µM (A498 [3]) of 52%, an inhibition of growth at 10 µM [4] of 21% and an inhibition of growth at 10 µM [5] of 32%. For the same compound, the inhibition of growth at 10 µM [6] was 8%, the inhibition of growth at 10 µM (Malme-3M) was 13% and the inhibition of growth at 10 µM (SNB-75 [7]) was 12%. For the same compound, the inhibition of growth at 10 µM (CAKI-1) was 32%, the inhibition of growth at 10 µM (MDA-MB-435 [8]) was 89% and the inhibition of growth at 10 µM [9] was 0%. The inhibition of growth at 10 µM [10] was 4%, the inhibition (Ovis aries) was 9% and the inhibition of growth at 10 µM (MCF7 [11]) was 37%. It also gave an inhibition of growth at 10 µM [12] of 31% and an inhibition of growth at 10 µM [13] of 18%.
